Where two headings read alike, the source gives them in different places.
How the values were obtained:
[1] = test system: estrogen-primed immature rabbits; details: cited from earlier work
[2] = test system: endometrium of estrogen-primed ovariectomized or climacteric women; details: cited from earlier work
cycling rats [3] = details: literature; cited from earlier work
[4] = biological target: T1, Cytosol Progesterone Receptor of the Estrogen-primed Immature Rabbit Uterus (Oryctolagus cuniculus, UniProt P06186); assay: Relative binding affinity for progesterone receptor (competition with 3H-progesterone); design: species or system rabbit (New Zealand White); details: 16-18 hour incubation, progesterone = 100
T1 construct: cytosol progesterone receptor of the estrogen-primed immature rabbit uterus; tissue Dutchland Laboratories, Inc., Denver, Pa (animals); host or cells: uterus cytosol of estradiol-treated immature female New Zealand White rabbits
T1 sequence (P06186 1-930): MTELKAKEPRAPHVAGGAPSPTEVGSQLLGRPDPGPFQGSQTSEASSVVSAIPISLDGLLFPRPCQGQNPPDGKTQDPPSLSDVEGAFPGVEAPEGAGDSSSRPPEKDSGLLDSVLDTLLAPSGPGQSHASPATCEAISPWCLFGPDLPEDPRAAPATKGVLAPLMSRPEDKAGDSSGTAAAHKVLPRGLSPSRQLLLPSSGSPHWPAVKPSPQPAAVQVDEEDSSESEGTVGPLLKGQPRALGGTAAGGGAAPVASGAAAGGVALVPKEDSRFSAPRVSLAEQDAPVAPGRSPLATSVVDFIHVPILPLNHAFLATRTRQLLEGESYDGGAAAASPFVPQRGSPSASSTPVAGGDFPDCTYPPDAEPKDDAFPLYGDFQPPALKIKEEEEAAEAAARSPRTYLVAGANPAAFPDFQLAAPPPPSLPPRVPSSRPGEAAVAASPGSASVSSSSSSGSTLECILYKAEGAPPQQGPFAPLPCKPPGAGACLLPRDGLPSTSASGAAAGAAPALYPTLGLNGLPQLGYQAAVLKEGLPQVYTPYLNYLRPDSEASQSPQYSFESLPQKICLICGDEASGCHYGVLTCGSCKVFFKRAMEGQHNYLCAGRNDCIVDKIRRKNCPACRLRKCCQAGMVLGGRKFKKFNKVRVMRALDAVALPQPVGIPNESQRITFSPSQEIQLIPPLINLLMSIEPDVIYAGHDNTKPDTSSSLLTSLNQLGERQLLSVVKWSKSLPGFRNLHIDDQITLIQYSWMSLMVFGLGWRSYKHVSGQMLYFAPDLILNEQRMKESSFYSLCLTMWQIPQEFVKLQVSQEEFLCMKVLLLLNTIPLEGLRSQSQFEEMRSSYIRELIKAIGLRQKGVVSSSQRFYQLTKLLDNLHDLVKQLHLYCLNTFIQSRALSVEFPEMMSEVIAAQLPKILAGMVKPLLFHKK
Description: RBA values recorded at 0° C. after short incubation times (e.g., 2 hr) mainly reflect differences in the association rate constants of the competing ligands, whereas those measured after long incubation times (e.g., 16 to 24 hr) and/or higher temperatures predominantly are influenced by differences in the dissociation rate constants of the competing ligands. RBA's determined after short incubation times primarily reflect the association of the competitor compared to the natural hormone. Conversely, RBA's measured after long incubation times reflect the dissociation rate of the competitor compared to the natural hormone.
The assay components are combined, allowed to equilibrate, and unbound radioactivity removed by charcoal adsorption.
Animal species. Immature female New Zealand White rabbits weighing 0.8 to 1.0 kg (Dutchland Laboratories, Inc., Denver, Pa).
Pretreatment. Subcutaneous treatment with 15 μg 17β-estradiol/0.6 ml sesame oil each morning (0830 to 0930 hr) for three days. Animals sacrificed 24 hr after final injection.
Tissue. Uterus; each uterus weighed about 1.0 g and two or three uteri were pooled for each assay.
Buffer. (A) 0.01M TES, pH 7.4, 1 mM EDTA, 0.012M thioglycerol and 30% glycerol for cytosol preparation and ^3 H-steroid, unlabeled hormone and compound solutions. (B) 0.01M TES, pH 7.4, 1 mM EDTA and 0.012M thioglycerol for charcoal solution.
Homogenization. Five or six 5-second bursts with 30 second cooling periods between bursts using Brinkman Polytron Pt. 10 at 3.5 rheostat setting.
Temperature. 0°-4° C. for all steps.
Centrifugation. 45,000 rpm for 1 hr, 50 Ti rotor, Beckman L8-80 ultracentrifuge.
Incubation. 16-18 hr at 4°-6° C.
Concentations. 1×10^-10 M to 1×10^-5 M (7 concentrations).
Method. Charcoal adsorption method used to remove unbound radioactivity. Five-tenths ml of dextran-coated charcoal (0.5% Norit A and 0.05% dextran T-70) added to all tubes except total radioactivity tubes (0.5 ml buffer [B] added), tubes vortexed 3-5 sec, allowed to sit for 10 minutes and centrifuged 10 minutes at 2000 rpm in Beckman TJ-6 centrifuge at 0°-4° C.
Data Interpretation. […] The relative binding affinity (RBA) of each compound was calculated by using the following equation. [formula] where

[5] = in vivo; cited from earlier work
[6] = test system: curettage specimens of endometrial cancer patients; details: i.m. twice weekly 3-7 weeks after polyestradiol phosphate 80 mg; all 12 patients; cited from earlier work
[7] = test system: uterine endometrium of estrone-primed immature rabbits; assay: Clauberg assay (progestational activity, McPhail); type: in vivo, rabbit (New Zealand White); details: sc
cycling rats [8] = assay: Blockade of ovulation in rats; type: in vivo, rat (Charles River CD); details: for No. Rats Ovulated (of rats treated) / No. of Oviductal Eggs in Rats that Ovulated (X ± S.D.): single sc
Source text: The treated rats were sacrificed on the morning of expected estrus and eggs, if present, were flushed from the oviducts and counted. | *This assay employs cycling Charles River CD rats. For methods refer to | Beattie, C. W. and A. Corbin, Endocrinology 97, 885, 1975. […] | diestrus. Rats were sacrificed 43 to 44 hr later on the morning of | expected estrus. Eggs, if present, were flushed from oviducts and counted | under a stereomicroscope.

[9] = test system: androgen target organs of castrate immature male rats; assay: Anti-androgenic activity in the castrate immature rat assay; type: in vivo
Description: The oral anti-androgenic activity of 6-methyl-6-dehydro-17α-ethynylprogesterone was evaluated in the castrate immature male rat assay [Lerner et al., Proc. Soc. […] The assay is briefly described in the footnotes to Table 11.
*This assay employs castrate immature rats. For methods refer to Lerner,
L. J., A. Bianchi and A. Borman, Proc. Soc.
**Groups of rats (7/group) were given daily injections of 0.3 ml sesame
oil (control) or compound (in 0.3 ml sesame oil) for 7 days. Some groups
also concurrently received progestational compounds by the sc or oral
route of administration in order to evaluate antiandrogenic activity. One
day after the final doses, the animals were sacrificed and the androgen
target organs indicated were weighed.
***Statistically significant (p < 0.05) lower organ weights versus the
testosterone, sc, (400 μg/rat/day) group as determined by Analysis of
Variance coupled with Duncan's Multiple Range Test.

[10] = biological target: T1, Cytosol Progesterone Receptor of the Estrogen-primed Immature Rabbit Uterus; details: relative to progesterone = 100; literature; cited from earlier work
[11] = general knowledge; cited from earlier work
[12] = sc 25 μg/rat daily + testosterone sc 400
[13] = sc 100 μg/rat daily + testosterone sc 400
[14] = sc 400 μg/rat daily + testosterone sc 400

For C#C[C@]1(O)CC[C@H]2[C@@H]3CCC4=CC(=O)CC[C@@H]4[C@H]3CC[C@@]21CC (relative stereo) [(±)Norgestrel], which “Threshold or effective dose, Clauberg Assay” value ([1]; oral) is on record?
The value was 0.03-0.1 mg/animal.

What about the “Threshold or effective dose, Clauberg Assay” value ([1]; s.c. (i.m.)) of the same compound?
Its value is 0.03 mg/animal.

What about the “Threshold or effective dose, Kaufman Assay” value ([2]; oral) of the same compound?
Its value is 12 mg/cycle.

And the “effectiveness in suppressing ovulation relative to progesterone (Beattie and Corbin 1975), in words” value (cycling rats [3])?
Its value is “five times as effective as progesterone”.

Which results are given for CC(=O)O[C@]1(C(C)=O)CC[C@H]2[C@@H]3CCC4=CC(=O)CC[C@]4(C)[C@H]3CC[C@@]21C [17α-Acetoxyprogesterone (Prodox ®), 17α-Acetoxyprogesterone, reference compound]?
RBA ([4]; Assay 5): 122%; RBA ([4]; Assay 6): 114%; thromboembolic episodes, in words [5]: higher rate of thromboembolic episodes

Which “inhibition of nucleic acid synthesis, in words” value [6] does the source give for CCCCCC(=O)O[C@]1(C(C)=O)CC[C@H]2[C@@H]3CCC4=CC(=O)CC[C@]4(C)[C@H]3CC[C@@]21C [17α-hydroxyprogesterone caproate] here?
The value was “Significant inhibition of nucleic acid synthesis”.

For CCCCCC(=O)O[C@]1(C(C)=O)CC[C@H]2[C@@H]3CCC4=CC(=O)CC[C@@H]4[C@H]3CC[C@@]21C [19-nor-17α-hydroxyprogesterone caproate], which “inhibition of nucleic acid synthesis, in words” value [6] is on record?
The value was “Significant inhibition of nucleic acid synthesis”.

With CC(=O)[C@H]1CC[C@H]2[C@@H]3CCC4=CC(=O)CC[C@]4(C)[C@H]3CC[C@]12C [Progesterone] as the compound, how does the “Uterine Weight (X ± S.D.)” value ([7]; 50 μg/rabbit daily) read?
Its value is 1.09 ± 0.09 g.

What about the “Uterine Weight (X ± S.D.)” value ([7]; 100 μg/rabbit daily) of the same compound?
Its value is 1.64 ± 0.23 g.

What about the “ovulation, in words” value (cycling rats [8]; 500 μg progesterone, 100, 250 or 500 μg 17α-ethynylprogesterone) of the same compound?
Its value is “ovulation was blocked in most rats”.

And the “ovulation, in words” value (cycling rats [8]; 100 or 250 μg progesterone, 50 μg 17α-ethynylprogesterone)?
The value was “ovulated in a normal fashion”.

And the “No. Rats Ovulated (of rats treated)” value (cycling rats [8]; 100 μg/rat)?
The value was 5/5.

And the “No. of Oviductal Eggs in Rats that Ovulated (X ± S.D.)” value (shortened to “No. of Oviductal Eggs”) (cycling rats [8]; 100 μg/rat)?
Its value is 7.8 ± 3.8.

And the “No. Rats Ovulated (of rats treated)” value (cycling rats [8]; 250 μg/rat)?
Its value is 4/5.

And the “No. of Oviductal Eggs” value (cycling rats [8]; 250 μg/rat)?
Its value is 7.0 ± 3.8.

What about the “No. Rats Ovulated (of rats treated)” value (cycling rats [8]; 500 μg/rat) of the same compound?
The value was 1/4.

And the “No. of Oviductal Eggs” value (cycling rats [8]; 500 μg/rat)?
Its value is 9.0.

What about the “Levator Ani weight (X ± S.D.)” value [9, 12] of the same compound?
Its value is 54 ± 15 mg.

And the “Seminal Vesicles weight (X ± S.D.)” value [9, 12]?
The value was 157 ± 19 mg.

And the “Ventral Prostate weight (X ± S.D.)” value [9, 12]?
Its value is 71 ± 28 mg.

What about the “Levator Ani weight (X ± S.D.)” value [9, 13] of the same compound?
The value was 58 ± 15 mg.

And the “Ventral Prostate weight (X ± S.D.)” value [9, 13]?
The value was 80 ± 27 mg.

And the “Levator Ani weight (X ± S.D.)” value [9, 14]?
Its value is 59 ± 14 mg.

What about the “Seminal Vesicles weight (X ± S.D.)” value [9, 14] of the same compound?
Its value is 162 ± 26 mg.

What about the “Ventral Prostate weight (X ± S.D.)” value [9, 14] of the same compound?
The value was 60 ± 26 mg.

What about the “anti-androgenic activity, in words” value ([9]; with testosterone sc 400 μg/rat/day, doses up to 400 μg/rat/day (progestagen oral; progesterone sc)) of the same compound?
Its value is “inactive”.

What about the “RBA (Kontula et al. 1975)” value [10] of the same compound?
The value was 100.

And the “Threshold or effective dose, Clauberg Assay” value ([1]; oral)?
The value was 10.0 mg/animal.

And the “Threshold or effective dose, Clauberg Assay” value ([1]; s.c. (i.m.))?
Its value is 0.5 mg/animal.

And the “Threshold or effective dose, Kaufman Assay” value ([2]; i.m.)?
Its value is 200 mg/cycle.

And the “oral progestational activity, in words” value [11]?
The value was “only weakly active when taken orally”.

— patent US4512986A, “Progrestationally active steroids” (priority 1983, dated 1985)
